The record followed here is PMC7531004, “Discovery of gramicidin A analogues with altered activities by multidimensional screening of a one-bead-one-compound library” (Nature Communications, 2020).

Where a SMILES comes first, the peptide text is derived from it. [ ]: non-standard residue; d: D form. The star is where a group is joined. NHCH2CH2OH = OCCN*; For = O=C*

Data set [1] in a line: H+/Na+ transport assay of bead-derived peptides (one-point).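 Further: relative to parent gramicidin A activity set to 1.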 In kind it is biochemical. The settings on record: bead-derived peptide solution, EYPC/EYPG LUVs. Also on record: key: relative activity; mean of two control wells = 1.00. Put shortly:
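One-point screen: peptide + pyranine-loaded LUVs, 30 min RT with vortexing, 96-well. Read-out is fluorescence intensity scaled as 100 × (Ix – I0)/(Imax – I0). Imax from Triton X-100, I0 from untreated vesicles, and the mean of the two control wells is set to 1.00.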

Data set [2] has as its system P388 mouse leukemia cells. The settings on record: 92 h. Put shortly: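 First, library peptide stocks are diluted 250-fold in RPMI1640 with 10% heat-inactivated FBS. Next, they are mixed with P388 cells to give 1 × 10^4 cells/mL and incubated 92 h at 37 °C, 5% CO2. Finally, viability (%) is scored by WST-1 absorbance at 415 nm.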
Data set [3] deals with Streptococcus pyogenes SSI-9. Nature of the data set: Antibacterial activity assay of bead-derived peptides (three concentrations). In kind it is cell-based. Also on record: key: +++: inhibition by the 640-fold diluted peptide solution; ++: inhibition by the 160-fold diluted solution; +: inhibition by the 40-fold diluted solution; -: no inhibition. The settings on record: S. pyogenes, bead-derived peptide solution, three concentrations. The method in brief: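 Three stock dilutions per peptide (none, 4-fold, 16-fold in DMSO) are screened in 96-well format. The medium is blood-supplemented cation-adjusted MHB, inoculated with 2 × 10^5 CFU S. pyogenes SSI-9. Growth is read as cell precipitation at 18 h, 37 °C.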

Turning to `CC(C)C[C@@H](NC(=O)[C@H](C)NC(=O)CNC(=O)[C@@H](NC=O)C(C)C)C(=O)N[C@@H](C)C(=O)N[C@@H](C(=O)N[C@H](C(=O)N[C@@H](C(=O)N[C@@H](Cc1c[nH]c2ccccc12)C(=O)N[C@H](CC(C)C)C(=O)N[C@@H](Cc1c[nH]c2ccccc12)C(=O)N[C@@H](C(=O)N[C@@H](Cc1c[nH]c2ccccc12)C(=O)N[C@H](CC(C)C)C(=O)N[C@@H](Cc1c[nH]c2ccccc12)C(=O)NCCO)C(C)C)[C@H](C)O)C(C)C)C(C)C` [compound 4279] (For-VGA[dL]A[dV]V[dT]W[dL]W[dV]W[dL]W-NHCH2CH2OH), the “H+/Na+ transport activity normalized against the value of 1 (1.00)” value (shortened to “H+/Na+ transport activity normalized”) in data set [1] is listed as 1.05. For the same compound, the cell viability/% in data set [2] was 98.8%. Moreover, in data set [3], the antibacterial activity entry was “-”.
For `CC(C)C[C@@H](NC(=O)[C@H](C)NC(=O)CNC(=O)[C@@H](NC=O)C(C)C)C(=O)N[C@@H](C)C(=O)N[C@H](CC(C)C)C(=O)N[C@H](C(=O)N[C@@H](C(=O)N[C@@H](Cc1c[nH]c2ccccc12)C(=O)N[C@@H](C(=O)N[C@@H](Cc1c[nH]c2ccccc12)C(=O)N[C@H](CC(C)C)C(=O)N[C@@H](Cc1c[nH]c2ccccc12)C(=O)N[C@@H](C(=O)N[C@@H](Cc1c[nH]c2ccccc12)C(=O)NCCO)C(C)C)C(C)C)C(C)C)C(C)C` [compound 4297] (For-VGA[dL]A[dL]V[dV]W[dV]W[dL]W[dV]W-NHCH2CH2OH) the same measures were 1.29, 2.3% and “+”.
For `CC(C)C[C@@H](NC(=O)[C@H](C)NC(=O)CNC(=O)[C@@H](NC=O)C(C)C)C(=O)N[C@@H](C)C(=O)N[C@H](CC(C)C)C(=O)N[C@H](C(=O)N[C@H](CC(C)C)C(=O)N[C@@H](Cc1c[nH]c2ccccc12)C(=O)N[C@H](CC(C)C)C(=O)N[C@@H](Cc1c[nH]c2ccccc12)C(=O)N[C@@H](C(=O)N[C@@H](Cc1c[nH]c2ccccc12)C(=O)N[C@@H](C(=O)N[C@@H](Cc1c[nH]c2ccccc12)C(=O)NCCO)C(C)C)C(C)C)C(C)C` [compound 4313] (For-VGA[dL]A[dL]V[dL]W[dL]W[dV]W[dV]W-NHCH2CH2OH), in that order: 1.21, 3.2% and “+”.
For `CC(C)C[C@@H](NC(=O)[C@H](Cc1c[nH]c2ccccc12)NC(=O)[C@@H](CC(C)C)NC(=O)[C@H](Cc1c[nH]c2ccccc12)NC(=O)[C@H](NC(=O)[C@H](Cc1c[nH]c2ccccc12)NC(=O)[C@@H](CC(C)C)NC(=O)[C@@H](NC(=O)[C@H](NC(=O)[C@H](C)NC(=O)[C@H](NC(=O)[C@H](C)NC(=O)CNC(=O)[C@@H](NC=O)C(C)C)C(C)C)C(C)C)C(C)C)C(C)C)C(=O)N[C@@H](Cc1c[nH]c2ccccc12)C(=O)NCCO` [compound 4329] (For-VGA[dV]A[dV]V[dL]W[dV]W[dL]W[dL]W-NHCH2CH2OH), in that order: 1.18, 14.3% and “-”.
For `CC(C)C[C@@H](NC(=O)[C@H](C)NC(=O)CNC(=O)[C@@H](NC=O)C(C)C)C(=O)N[C@@H](C)C(=O)N[C@@H](C(=O)N[C@H](C(=O)N[C@@H](C(=O)N[C@@H](Cc1c[nH]c2ccccc12)C(=O)N[C@@H](C(=O)N[C@@H](Cc1c[nH]c2ccccc12)C(=O)N[C@H](CC(C)C)C(=O)N[C@@H](Cc1c[nH]c2ccccc12)C(=O)N[C@@H](C(=O)N[C@@H](Cc1c[nH]c2ccccc12)C(=O)NCCO)C(C)C)C(C)C)[C@H](C)O)C(C)C)C(C)C` [compound 4357] (For-VGA[dL]A[dV]V[dT]W[dV]W[dL]W[dV]W-NHCH2CH2OH), in data set [1], the “H+/Na+ transport activity normalized” value was found to be 1.01. The compound further returned a cell viability/% in data set [2] of 100.0%. The antibacterial activity result in data set [3] is “-”.
For `CC(C)C[C@@H](NC(=O)[C@H](C)NC(=O)[C@H](NC(=O)[C@H](C)NC(=O)CNC(=O)[C@@H](NC=O)C(C)C)C(C)C)C(=O)N[C@H](C(=O)N[C@@H](C(=O)N[C@@H](Cc1c[nH]c2ccccc12)C(=O)N[C@@H](C(=O)N[C@@H](Cc1c[nH]c2ccccc12)C(=O)N[C@@H](C(=O)N[C@@H](Cc1c[nH]c2ccccc12)C(=O)N[C@H](CC(C)C)C(=O)N[C@@H](Cc1c[nH]c2ccccc12)C(=O)NCCO)C(C)C)C(C)C)[C@H](C)O)C(C)C` [compound 4395] (For-VGA[dV]A[dL]V[dT]W[dV]W[dV]W[dL]W-NHCH2CH2OH) the same measures were 1.07, 100.0% and “-”.
As to `CC(C)C[C@@H](NC(=O)[C@H](C)NC(=O)CNC(=O)[C@@H](NC=O)C(C)C)C(=O)N[C@@H](C)C(=O)N[C@H](CC(C)C)C(=O)N[C@H](C(=O)N[C@@H](C(=O)N[C@@H](Cc1c[nH]c2ccccc12)C(=O)N[C@@H](C(=O)N[C@@H](Cc1c[nH]c2ccccc12)C(=O)N[C@H](CC(C)C)C(=O)N[C@@H](Cc1c[nH]c2ccccc12)C(=O)N[C@H](CC(C)C)C(=O)N[C@@H](Cc1c[nH]c2ccccc12)C(=O)NCCO)[C@H](C)O)[C@H](C)O)C(C)C` [compound 4421] (For-VGA[dL]A[dL]V[dT]W[dT]W[dL]W[dL]W-NHCH2CH2OH), in data set [1], the “H+/Na+ transport activity normalized” value amounted to 1.12. In data set [2], this compound showed a cell viability/% of 100.0%. For the same compound, in data set [3], the antibacterial activity entry was “-”.
For `CC(C)C[C@@H](NC(=O)[C@H](C)NC(=O)CNC(=O)[C@@H](NC=O)C(C)C)C(=O)N[C@@H](C)C(=O)N[C@@H](C(=O)N[C@H](C(=O)N[C@@H](C(=O)N[C@@H](Cc1c[nH]c2ccccc12)C(=O)N[C@@H](C(=O)N[C@@H](Cc1c[nH]c2ccccc12)C(=O)N[C@H](CC(C)C)C(=O)N[C@@H](Cc1c[nH]c2ccccc12)C(=O)N[C@@H](C(=O)N[C@@H](Cc1c[nH]c2ccccc12)C(=O)NCCO)C(C)C)C(C)C)[C@H](C)O)C(C)C)C(C)C` [compound 4427] (For-VGA[dL]A[dV]V[dT]W[dV]W[dL]W[dV]W-NHCH2CH2OH), in that order: 1.18, 100.0% and “-”.
For `CC(C)C[C@@H](NC(=O)[C@H](Cc1c[nH]c2ccccc12)NC(=O)[C@H](NC(=O)[C@H](Cc1c[nH]c2ccccc12)NC(=O)[C@@H](CC(C)C)NC(=O)[C@H](Cc1c[nH]c2ccccc12)NC(=O)[C@@H](CC(C)C)NC(=O)[C@@H](NC(=O)[C@H](NC(=O)[C@H](C)NC(=O)[C@H](NC(=O)[C@H](C)NC(=O)CNC(=O)[C@@H](NC=O)C(C)C)[C@H](C)O)C(C)C)C(C)C)C(C)C)C(=O)N[C@@H](Cc1c[nH]c2ccccc12)C(=O)NCCO` [compound 4440] (For-VGA[dT]A[dV]V[dL]W[dL]W[dV]W[dL]W-NHCH2CH2OH) the same measures were 1.15, 85.6% and “-”.
For `CC(C)C[C@@H](NC(=O)[C@H](C)NC(=O)[C@H](NC(=O)[C@H](C)NC(=O)CNC(=O)[C@@H](NC=O)C(C)C)C(C)C)C(=O)N[C@H](C(=O)N[C@H](CC(C)C)C(=O)N[C@@H](Cc1c[nH]c2ccccc12)C(=O)N[C@@H](C(=O)N[C@@H](Cc1c[nH]c2ccccc12)C(=O)N[C@@H](C(=O)N[C@@H](Cc1c[nH]c2ccccc12)C(=O)N[C@@H](C(=O)N[C@@H](Cc1c[nH]c2ccccc12)C(=O)NCCO)C(C)C)C(C)C)C(C)C)C(C)C` [compound 4477] (For-VGA[dV]A[dL]V[dL]W[dV]W[dV]W[dV]W-NHCH2CH2OH), in that order: 1.38, 6.3% and “+”.
In the case of `CC(C)C[C@@H](NC(=O)[C@H](C)NC(=O)CNC(=O)[C@@H](NC=O)C(C)C)C(=O)N[C@@H](C)C(=O)N[C@@H](C(=O)N[C@H](C(=O)N[C@@H](C(=O)N[C@@H](Cc1c[nH]c2ccccc12)C(=O)N[C@@H](C(=O)N[C@@H](Cc1c[nH]c2ccccc12)C(=O)N[C@@H](C(=O)N[C@@H](Cc1c[nH]c2ccccc12)C(=O)N[C@H](CC(C)C)C(=O)N[C@@H](Cc1c[nH]c2ccccc12)C(=O)NCCO)C(C)C)C(C)C)[C@H](C)O)C(C)C)C(C)C` [compound 4493] (For-VGA[dL]A[dV]V[dT]W[dV]W[dV]W[dL]W-NHCH2CH2OH), the “H+/Na+ transport activity normalized” value in data set [1] is listed as 1.19. In data set [2], the cell viability/% worked out at 100.0%. Further, the antibacterial activity result in data set [3] is on record as “-”.
For `CC(C)C[C@@H](NC(=O)[C@H](C)NC(=O)CNC(=O)[C@@H](NC=O)C(C)C)C(=O)N[C@@H](C)C(=O)N[C@@H](C(=O)N[C@H](C(=O)N[C@@H](C(=O)N[C@@H](Cc1c[nH]c2ccccc12)C(=O)N[C@H](CC(C)C)C(=O)N[C@@H](Cc1c[nH]c2ccccc12)C(=O)N[C@H](CC(C)C)C(=O)N[C@@H](Cc1c[nH]c2ccccc12)C(=O)N[C@H](CC(C)C)C(=O)N[C@@H](Cc1c[nH]c2ccccc12)C(=O)NCCO)C(C)C)C(C)C)C(C)C` [compound 4495] (For-VGA[dL]A[dV]V[dV]W[dL]W[dL]W[dL]W-NHCH2CH2OH), in that order: 1.26, 3.5% and “++”.
